Here are results for seven molecules from patent publication US6413974B1, “6,9,-disubstituted 2-[trans-(4-aminocyclohexyl) amino] purines” (Aventis Pharmaceuticals Inc., priority 1998, dated 2002).

For one test, the system named is DMS-114. The experiment in a line: In vitro tumor cell proliferation, DMS-114. The following applies: read-out: In vitro Tumor Cell Proliferation (IC50, μM) Lung DMS-114. In kind it is cell-based, human. An outline of the steps:
(§1)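 SRB read-out: 3-day drug exposure, medium and drug renewed, 4 further days, TCA fixation at 4° C, 0.4% SRB stain. CyQUANT alternative: 3-day drug exposure, then plates frozen at −80° C ≥30 min. Cells plated overnight at 37° C before dosing.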

In a further test the test system is A549. The test can be described thus: In vitro tumor cell proliferation, A549. In kind it is cell-based, human. The following applies: read-out: In vitro Tumor Cell Proliferation (IC50, μM) Lung A549. An outline of the steps:
as §1

Another test concerns HT-29. The test can be described thus: In vitro tumor cell proliferation, HT-29. The following applies: read-out: In vitro Tumor Cell Proliferation (IC50, μM) Colon HT-29 (converted). In kind it is cell-based, human. In a few lines: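 HT-29 human colon adenocarcinoma cells plated overnight at 37° C., then exposed to drug for 3 days, medium with fresh drug replaced for a further 4 days. Cells fixed with 10% TCA and stained with 0.4% sulforhodamine B; alternatively, CyQUANT read after 3 days of drug exposure.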

The next test has as its system HCT-15. The test can be described thus: In vitro tumor cell proliferation, HCT-15. In kind it is cell-based, human. Conditions: read-out: In vitro Tumor Cell Proliferation (IC50, μM) Colon HCT-15. The procedure:
(§2) The proliferation of tumor cells was measured using a sulforhodamine B assay as described in Skehan, P., et al., J. Natl. Cancer Inst. […] Tumor cells were harvested with trypsin-EDTA, cells that excluded trypan blue were counted, added to 96-well plates and incubated overnight at 37° C. Drug was added to the wells following dilution in culture medium. Three days later, the medium was removed and replenished with medium containing fresh drug and incubated an additional 4 days. The cells were then fixed with 0.1 ml 10% trichloroacetic acid for 60 min at 4° C. The plates were rinsed five times with tap water, air-dried and stained for 30 min with 0.4% sulforhodamine B in 1% acetic acid and air-dried.
(§3) Alternatively, the CyQUANT cell proliferation assay was used to quantify tumor cell proliferation. Tumor cells were harvested with trypsin-EDTA, cells that excluded trypan blue were counted, added to 96-well plates and incubated overnight at 37° C. Drug was added to the wells following dilution in culture medium. Three days later the medium was removed and the plates frozen at −80° C. for at least 30 minutes.

The next test has as its target T1, cdk2/cyclin E (Homo sapiens, UniProt P24941).
T1 construct: made in house; host or cells: insect cells (baculovirus co-infection)
The experiment in a line: Cyclin-Dependent Kinase 2 Assay (cdk-2 inhibition). In kind it is biochemical. The following applies: GST-Rb substrate, 30 min at 30° C. In a few lines: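 GST-Rb bound to glutathione-Sepharose beads (0.5 μg/well) as substrate in 50 mM HEPES pH 7.5, 10 mM MgCl2, 1 mM EGTA. Recombinant cdk2/cyclin E at 0.1 μg per 100 μl, 30 min at 30 °C. Reaction stopped by filtration, TNEN washes, scintillation counting.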

The next test concerns MCF-7. The test can be described thus: In vitro tumor cell proliferation, MCF-7. In kind it is cell-based, human. The following applies: read-out: In vitro Tumor Cell Proliferation (IC50, μM) Breast MCF-7. The procedure: as §2, §3
MCF7 is a human breast adenocarcinoma, hormone-dependent (HTB 22);

The test system of a further test is DU 145. The experiment in a line: In vitro tumor cell proliferation, DU 145. In kind it is cell-based, human. An outline of the steps: as §1
The test system of a further test is PC-3. The experiment in a line: In vitro tumor cell proliferation, PC-3. In kind it is cell-based, human. The following applies: read-out: In vitro Tumor Cell Proliferation (IC50, μM) Prostate PC-3. An outline of the steps: as §1
The target of a further test is T2, cdk4/cyclin D1 (Homo sapiens, UniProt P11802).
T2 construct: made in house; host or cells: Sf9 insect cells (Bac-to-Bac baculovirus, pFastBac)
The test can be described thus: Cyclin-dependent kinase 4 Assay. In kind it is biochemical. Conditions: cdk4/cyclin D1, GST-Rb substrate, 10 μM ATP, 30 min at 37° C.; read-out: CDK4 Inhibition IC50. In a few lines:
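Insect-cell lysate of coexpressed human cdk4/cyclin D1 (0.1 μg) phosphorylated bead-bound GST-Rb (0.5 μg) in 50 mM HEPES pH 7.5, 10 mM MgCl2, 1 mM EGTA for 30 min at 37 °C. Filters were washed with TNEN and scintillation-counted; IC50 values derived.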

A further test deals with MDA-MB-231. The experiment in a line: In vitro tumor cell proliferation, MDA-MB-231. It counts as cell-based, human. Conditions: read-out: In vitro Tumor Cell Proliferation (IC50, μM) Breast MDA-MB-231. In a few lines: as §1
Setting [1] is: Homo sapiens, DMS-114, values without *.
Setting [2] is: values without *, dihydrochloride.
The mark [3] stands for this setting: Homo sapiens, A549, values without *.
Setting [4] is: Homo sapiens, HT-29, values without *.
[5] abbreviates: Homo sapiens, HCT-15, values without *.
The mark [6] stands for this setting: Homo sapiens, MCF7, values without *.
[7] abbreviates: Homo sapiens, DU-145, values without *, read-out: In vitro Tumor Cell Proliferation (IC50, μM) Prostate DUI45.
[8] abbreviates: values without *, dihydrochloride, read-out: In vitro Tumor Cell Proliferation (IC50, μM) Prostate DUI45.
The mark [9] stands for this setting: Homo sapiens, PC-3, values without *.
Where [10] appears, read: Homo sapiens, MDA-MB-231, values without *.

Structures are written as SMILES. Values joined by “and” are separate entries in the source; they are usually repeats but may differ in a detail not shown here. Equal entries are not always repeated. Structures can show the parent of a compound that is named as a salt. Where two headings read alike, the source gives them in different places.

T2 sequence (P11802 whole entry): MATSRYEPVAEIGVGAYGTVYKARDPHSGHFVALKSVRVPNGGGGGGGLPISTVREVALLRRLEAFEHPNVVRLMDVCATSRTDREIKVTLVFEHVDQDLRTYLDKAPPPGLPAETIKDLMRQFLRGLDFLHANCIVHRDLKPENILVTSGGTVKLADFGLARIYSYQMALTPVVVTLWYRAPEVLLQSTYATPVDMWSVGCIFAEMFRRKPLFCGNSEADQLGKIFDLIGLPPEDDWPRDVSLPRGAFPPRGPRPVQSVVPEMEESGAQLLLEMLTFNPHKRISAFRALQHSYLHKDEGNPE
T2 sequence (P24385 whole entry partner): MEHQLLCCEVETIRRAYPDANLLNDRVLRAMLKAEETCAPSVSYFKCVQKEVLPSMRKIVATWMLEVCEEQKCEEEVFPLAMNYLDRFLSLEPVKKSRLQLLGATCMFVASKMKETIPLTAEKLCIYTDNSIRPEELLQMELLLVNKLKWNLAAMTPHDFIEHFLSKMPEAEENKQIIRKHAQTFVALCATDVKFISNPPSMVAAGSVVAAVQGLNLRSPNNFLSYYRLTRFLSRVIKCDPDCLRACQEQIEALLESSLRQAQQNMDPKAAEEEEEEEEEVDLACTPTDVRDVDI

`CC(C)CCNc1nc(N[C@H]2CC[C@H](N)CC2)nc2c1ncn2C1CCCC1` [Example 36, 2-[Trans-(4-aminocyclohexyl)amino]-6-[(3-methylbutyl)amino]-9-cyclopentylpurine dihydrochloride]: the IC50 in the test with DMS-114 (setting [1]) was 0.88 µM; in the test with DMS-114 (setting [2]), 0.91 µM; in the test on A549 (setting [3]), 0.8 µM; in the test on A549 (setting [2]), 0.94 µM; in the test on HT-29 (setting [4]) it was 1.5 µM; with HT-29 (setting [2]), 1.9 µM. Also, the IC50 was found to be 3.1 µM in the test with HCT-15 (setting [5]); 3.3 µM in the test on HCT-15 (setting [2]); 0.12 µM against cdk2/cyclin E; 1.1 µM in the test on MCF-7 (setting [6]); 1.3 µM in the test on MCF-7 (setting [2]); 0.89 µM with DU 145 (setting [7]). For the same molecule, the IC50 is 1.1 µM with DU 145 (setting [8]); 0.68 µM in the test with PC-3 (setting [9]); 1.1 µM and 0.6 µM at cdk4/cyclin D1; 1.4 µM in the test with MDA-MB-231 (setting [10]); 2 µM with MDA-MB-231 (setting [2]).

As to `N[C@H]1CC[C@H](Nc2nc(NCc3ccc(F)cc3)c3ncn(C4CCCC4)c3n2)CC1` [Example 50, 2-[Trans-(4-aminocyclohexyl)amino]-6-[(4-fluorobenzyl)amino]-9-cyclopentylpurine dihydrochloride], the IC50 in the test with DMS-114 (setting [1]) is 3.7 µM; in the test on DMS-114 (setting [2]) it was 2.4 µM; in the test on HT-29 (setting [4]), 4 µM; with HT-29 (setting [2]) it was 4.8 µM; with HCT-15 (setting [5]), 7.4 µM; in the test with HCT-15 (setting [2]) it was 7.7 µM. Moreover, the IC50 against cdk2/cyclin E amounted to 0.094 µM; in the test with MCF-7 (setting [6]), 1.9 µM; in the test with MCF-7 (setting [2]), 3.3 µM; in the test with DU 145 (setting [7]), 1.9 µM; with DU 145 (setting [8]) it was 3.3 µM; with PC-3 (setting [9]) it was 2 µM. The IC50 in the test on PC-3 (setting [2]) is 2.3 µM; at cdk4/cyclin D1 it was 7.7 µM and 3.1 µM; in the test with MDA-MB-231 (setting [10]), 3.2 µM; in the test with MDA-MB-231 (setting [2]) it was 4.5 µM.

Consider `N[C@H]1CC[C@H](Nc2nc(NCc3cccc(I)c3)c3ncn(C4CCCC4)c3n2)CC1` [Example 1, 2-[Trans-(4-aminocyclohexyl)amino]-6-(3-iodobenzylamino)-9-cyclopentylpurine dihydrochloride], for which the IC50 in the test with DMS-114 (setting [1]) was 1.2 µM; with DMS-114 (setting [2]), 0.9 µM; with A549 (setting [3]) it was 1.1 µM; in the test on A549 (setting [2]) it was 1 µM; in the test with HT-29 (setting [4]), 0.9 µM; with HT-29 (setting [2]) it was 1 µM and 1.6 µM. Also, the IC50 in the test with HCT-15 (setting [5]) is 2.2 µM; with HCT-15 (setting [2]), 1.9 µM; against cdk2/cyclin E, 0.05 µM and 0.07 µM and 0.085 µM and 0.037 µM and 0.055 µM and 0.065 µM; with MCF-7 (setting [6]), 0.7 µM; in the test on MCF-7 (setting [2]), 0.6 µM; in the test with DU 145 (Homo sapiens, DU-145, read-out: In vitro Tumor Cell Proliferation (IC50, μM) Prostate DUI45, values without *) it was 2 µM. Moreover, the IC50 with DU 145 (read-out: In vitro Tumor Cell Proliferation (IC50, μM) Prostate DUI45, values without *, dihydrochloride) was 1.6 µM and 1.2 µM; in the test on PC-3 (setting [9]), 1.9 µM; with PC-3 (setting [2]), 1.1 µM and 1.2 µM; on cdk4/cyclin D1 it was 2 µM; in the test on MDA-MB-231 (setting [10]), 1.1 µM; in the test on MDA-MB-231 (setting [2]), 0.8 µM.

As to `N[C@H]1CC[C@H](Nc2nc(NCc3ccccc3)c3ncn(C4CCCC4)c3n2)CC1` [Example 47, 2-[Trans-(4-aminocyclohexyl)amino]-6-[benzylamino]-9-cyclopentylpurine dihydrochloride], the IC50 in the test on DMS-114 (setting [2]) is 1.3 µM; in the test with A549 (setting [3]), 1.7 µM; in the test on HT-29 (setting [4]), 2.2 µM; with HT-29 (setting [2]) it was 2.7 µM; in the test with HCT-15 (setting [5]), 5.5 µM; in the test with HCT-15 (setting [2]), 6.1 µM. The IC50 worked out at 1 µM in the test on MCF-7 (setting [6]), 1.7 µM with MCF-7 (setting [2]), 0.93 µM in the test on PC-3 (setting [9]) and 1.3 µM in the test with PC-3 (setting [2]).

For the molecule `N[C@H]1CC[C@H](Nc2nc(NCc3ccc(Cl)cc3F)c3ncn(C4CCCC4)c3n2)CC1` [Example 40, 2-[Trans-(4-aminocyclohexyl)amino]-6-[(4-chloro-2-fluorobenzyl)amino]-9-cyclopentylpurine dihydrochloride], the IC50 in the test with DMS-114 (setting [1]) was 2.3 µM; with DMS-114 (setting [2]), 2 µM; in the test with A549 (setting [3]) it was 2.01 µM; in the test with A549 (setting [2]), 3.6 µM; in the test with HT-29 (setting [4]) it was 1.6 µM; in the test on HT-29 (setting [2]), 3.2 µM. Besides, the IC50 in the test with HCT-15 (setting [5]) came out at 4.2 µM; in the test on HCT-15 (setting [2]) it was 3.6 µM; against cdk2/cyclin E, 0.19 µM; with MCF-7 (setting [6]), 1.7 µM; with MCF-7 (setting [2]), 3.3 µM; with DU 145 (setting [7]), 2 µM. The IC50 in the test on DU 145 (setting [8]) is 3.5 µM; at cdk4/cyclin D1, 3.1 µM and 1 µM; in the test with MDA-MB-231 (setting [10]), 3.1 µM; with MDA-MB-231 (setting [2]), 3.5 µM.

Take `CC(C)n1cnc2c(NCC3CC3)nc(N[C@H]3CC[C@H](N)CC3)nc21` [Example 32, 2-[Trans-(4-aminocyclohexyl)amino]-6-[(cyclopropyl)methylamino]-9-(2-propyl)purine dihydrochloride]: the IC50 with A549 (setting [2]) was 10 µM; in the test with HT-29 (setting [2]) it was 11 µM; with HCT-15 (setting [5]), above 20 µM; in the test with HCT-15 (setting [2]) it was 24 µM; against cdk2/cyclin E, 0.21 µM and 0.096 µM; with MCF-7 (setting [6]), 9.3 µM. For the same molecule, the IC50 was 5.3 µM in the test on MCF-7 (setting [2]); 17 µM with DU 145 (setting [7]); 10 µM in the test with DU 145 (setting [8]); 9.7 µM in the test with PC-3 (setting [9]); 6.9 µM in the test with PC-3 (setting [2]); 16 µM in the test on MDA-MB-231 (setting [10]). In addition, the IC50 with MDA-MB-231 (setting [2]) turned out to be 8.1 µM.

Consider `N[C@H]1CC[C@H](Nc2nc(NCc3ccc(Cl)cc3Cl)c3ncn(C4CCCC4)c3n2)CC1` [Example 48, 2-[Trans-(4-aminocyclohexyl)amino]-6-[(2,4-dichlorobenzyl)amino]-9-cyclopentylpurine dihydrochloride], for which the IC50 in the test on DMS-114 (setting [1]) is 1.8 µM; in the test on DMS-114 (setting [2]), 1.9 µM and 2 µM and 1.4 µM; in the test with A549 (setting [3]), 2.2 µM; in the test with A549 (setting [2]) it was 2.3 µM and 2.1 µM; in the test on HT-29 (setting [4]), 2.8 µM; with HT-29 (setting [2]), 2.7 µM and 2.4 µM. Also, the IC50 in the test with HCT-15 (setting [5]) was 3.1 µM; with HCT-15 (setting [2]) it was 3.7 µM and 3.4 µM; against cdk2/cyclin E, 0.8 µM; in the test with DU 145 (setting [7]) it was 3.2 µM; with DU 145 (setting [8]), 3.4 µM and 2.8 µM and 2.5 µM; with PC-3 (setting [9]), 2 µM. Further, the IC50 is 1.9 µM and 1.6 µM in the test with PC-3 (setting [2]); 4.4 µM and 5.3 µM at cdk4/cyclin D1; 3 µM with MDA-MB-231 (setting [10]); 3.1 µM and 2 µM and 1.8 µM with MDA-MB-231 (setting [2]).
